Common to all, as to type: in vivo, rat
Test [1] relates to COX-2. Briefly: Assay C: COX-2 mRNA, TaqMan. As to conditions: 7, 14, 30 days; aldosterone+salt alone or with eplerenone 100 mg/kg/day. The protocol:
(§1) The procedure of Assay B was expanded upon in a further study. […] Myocardial tissue from animals in each treatment group was examined after 7, 14, or 30 days of treatment.
(§2) Potassium chloride supplementation was added to the saline solution in order to prevent the potential hypokalemia associated with aldosterone excess.
(§3) Treatment At the time of the surgery, an Alzet 2002 osmotic minipump (Alza Corp., Palo Alto, Calif.) containing either vehicle (9% ethanol/87% propylene glycol/4% dH2O) or 1.0 mg/mL d-aldosterone (Sigma Chemical, St. Louis, Mo.) was inserted subcutaneously at the nape of the neck. Aldosterone was administered at a dose of 0.75 µg/hour. […]
(§4) The fluorogenic 5′-nuclease assay (TaqMan PCR) using Applied Biosystems' 7700 Sequence Detection System (Applied Biosystems, Foster City, Calif.) allowed for real time detection/quantitation of a specific gene by monitoring the increase in fluorescence of a gene-specific, dye-labeled oligonucleotide probe. […] When the probe was annealed to the target gene, fluorescence of 6FAM was prevented by the close proximity of TAMRA. The exonuclease activity of Taq polymerase released the dyes from the oligonucleotide probe by displacing the probe from the target sequence resulting in fluorescence excitation in direct proportion to the amount of target message present. […]

In test [2] the test system is Vascular Cell Adhesion Molecule-1 (VCAM-1). The test can be described thus: Assay C: VCAM-1 mRNA, TaqMan. As to conditions: aldosterone+salt alone or with eplerenone 100 mg/kg/day; increase at day 30 did not reach statistical significance. How it is done:
as §1, §2, §3, §4

Test [3] concerns osteopontin. The test can be described thus: Assay B: osteopontin immunohistochemistry in the heart. As to conditions: aldosterone-infused, saline-drinking, uninephrectomized rats, eplerenone 100 mpk p.o, increased dietary potassium. The protocol: (§5) Assay B: In Vivo Aldosterone Infusion Model
Determination of osteopontin and COX-2 was performed by quantitative RT-PCR (Taqman). Osteopontin was also identified in the heart by immunohistochemistry.

The nature of test [4]: Assay B: aldosterone infusion model, heart histology, vascular inflammatory lesions and myocardial injury. As to conditions: aldosterone-infused, saline-drinking, uni-nephrectomized Sprague Dawley rats, 4 weeks; eplerenone 100 mpk p.o; 0.6% KCl in the drinking fluid. How it is done: as §5
(§6) Male Sprague Dawley rats (n=39; BW=250 g)
→ Hearts were harvested and divided by half through a transverse section at the mid-ventricles: The upper half was stored into formalin. The bottom part was snap-frozen in liquid nitrogen for biochemical analysis.
Hearts were stained with hematoxylin&eosin and the collagen specific dye picro-sirius red and were analyzed for determination of interstitial collagen volume fraction and morphologic abnormalities (i.e. necrosis, vascular injury).

Test [5] deals with Intercellular Adhesion Molecule-1 (ICAM-1). Briefly: Assay C: ICAM-1 mRNA, TaqMan. Conditions: aldosterone+salt alone or with eplerenone 100 mg/kg/day; 7, 14, 30 days. How it is done: as §1, §2, §3, §4
On the technique in general: Quantitative PCR measures a nucleic acid by following its amplification.

Test [6] can be described thus: Assay B: aldosterone infusion model, systolic blood pressure by radio-telemetry. Conditions: uni-nephrectomized Sprague Dawley rats, 1% NaCl, aldosterone 0.75 mg/hr sc, 4 weeks, eplerenone 100 mpk p.o. The protocol: as §5, §6
Uni-nephrectomy performed during implantation of mini-pumps
2. Aldosterone (0.75 mg/hr, sc via alzet minipump)
1. Aldosterone (0. 75 mg/hr, sc via alzet minipump)+0.6% KCl in the drinking fluid
Groups 1, 2 and 3 received only 0.3% KCl in the drinking solution
SBP measured by radio-telemetry probes inserted in the abdominal aorta

“Also recorded” adds a separate entry of the source.

In the case of `C[C@]12CCC(=O)C=C1CC[C@@H]1[C@@H]2[C@@H](O)C[C@]2(C=O)[C@@H](C(=O)CO)CC[C@@H]12` [aldosterone], in test [1], the “COX-2 mRNA expression in myocardium” value was “significantly increased”. The “VCAM-1 gene expression in myocardium” value in test [2] is listed as “increased two-fold at day 30”. In addition, the “Osteopontin expression in the heart (immunostaining)” value in test [3] was “clearly identified in the media of coronary arteries”. Besides, the “Vascular inflammatory lesions / myocardial injury (hematoxylin-eosin)” value in test [4] is “severe vascular inflammatory lesions”. Also, the “ICAM-1 mRNA expression in myocardium” value in test [5] is “upregulated at day 14 and 30”. The Systolic blood pressure entry in test [6] is “increased; also recorded: systolic blood pressure elevation”.
For `COC(=O)[C@@H]1CC2=CC(=O)CC[C@]2(C)[C@@]23O[C@@H]2C[C@@]2(C)[C@@H](CC[C@@]24CCC(=O)O4)[C@H]13` [eplerenone], the “COX-2 mRNA expression in myocardium” value in test [1] is “inhibition of early time-course expression of myocardial COX-2; also recorded: significantly reduced”. The “VCAM-1 gene expression in myocardium” value in test [2] is “significantly reduced; also recorded: inhibition of early time-course expression of myocardial ICAM-1 and VCAM-1”. The “Osteopontin expression in the heart (immunostaining)” value in test [3] is on record as “prevention by eplerenone of induction of osteopontin expression; also recorded: prevention by eplerenone of osteopontin upregulation”; in test [3] (listed as Eplerenone) it was “prevented the expression of osteopontin”. Besides, the “Vascular inflammatory lesions / myocardial injury (hematoxylin-eosin)” value in test [4] is given as “completely prevented the vascular inflammatory changes; also recorded: prevention by eplerenone of myocardial injury”. Further, in test [5], the “ICAM-1 mRNA expression in myocardium” value is “significantly reduced; also recorded: inhibition of early time-course expression of myocardial ICAM-1 and VCAM-1”. Further, the Systolic blood pressure entry is given as “depression of this elevation” in test [6] and “significantly reduced, but did not normalize blood pressure” in test [6] (listed as Eplerenone).

Values taken from patent US20040037806A1, “Aldosterone blocker therapy to prevent or treat inflammation-related disorders” (Pharmacia Corporation, priority 2002, published 2004).
